pEC50, pIC50: −log10 of the molar value. Read-outs that look alike come from different tables or passages of the source.

The source of these data is patent US20240124450A1, “Novel SIK Inhibitors” (Pfizer Inc., priority 2022, published 2024).

One assay has as its target SIK3 (Homo sapiens (Human), UniProt Q9Y2K2). The assay is described as follows: Pan SIK MS IC50 enzyme assay (SIK3). The class given is biochemical. Conditions: 1 mM ATP, substrate peptide AQT0508, LCMS/MS detection. The method, then: (§1) Enzyme Assay: Pan SIK MS IC50 Assay
(§2) Salt Induced Kinase (SIK) activity is determined by measuring the effect of a test agent on the activity of the appropriate SIK enzyme to phosphorylate its corresponding substrate. […] The phosphorylated substrate product resulting from the kinase reaction is detected by LCMS/MS, and the area under the peak curve correlates with kinase activity. […] The plates are spun at 1000 rpm for 30 seconds to ensure compounds are at the bottom of the well before removing foil covers. 0.15 μL HPE (assay std) and ZPE (DMSO) are added to the ARP using an HP D300 dispenser. Plates are spun again at 1000 rpm for 30 seconds. […] Plates are spun at 1000 rpm for 30 seconds. Plates are then sealed and incubated at RT for 10 minutes. Following incubation, 5 μL of 5× peptide reagent is added with a Multidrop Combi and designated small volume cassette to initiate the kinase reaction. Plates are spun at 1000 rpm for 30 seconds. Plates are then sealed and incubated at RT for 90 minutes. The assay is stopped by the addition of 5 μl of 120 mM EDTA added with a Multidrop Combi and designated small volume cassette (20 mM final concentration). Plates are spun at 1000 rpm for 30 seconds. 10 μl of the final reaction mix from each of the three individual enzyme plates are transferred by a Platemate Plus to the same corresponding 96 well deepwell plate containing 70 μl Water/Methanol (85/15%) for multiplex MS detection ([…]). Using Activity Base (ABase), an idbs data analysis software tool, the reported area ratio unit data is associated to compound, batch and dose information, the data is evaluated for quality, and the percent inhibition of each well is calculated. The data from each Max effect/HPE and Min effect/ZPE control wells are assessed, and outliers are excluded from all further calculations. The mean and standard deviation of the HPE and ZPE are then calculated for each plate, along with the Z Prime. The compound data is converted into % effect, using the average ZPE and HPE controls as 0% and 100% activity, respectively.

Assay [1] has as its system TNFα release from human monocyte derived macrophages stimulated with LPS. Description: SIK macrophage cytokine assay, inhibition of TNFα release. The class given is cell-based. Conditions: 1 ng/mL LPS, 4 hours, HTRF, read-out: TNFa IC50. The method, then:
(§3) Cytokine Assays: SIK Macrophage Assay Cytokine activity is determined by measuring the effect of a test agent on the inhibitory release of the cytokine TNFα and the increasing release of the cytokine IL10 from human monocyte derived macrophages (human macrophages) stimulated with lipopolysaccharide (LPS). At the time of assay, human macrophages (CGPS group Pfizer Groton, CT) are removed from cryopreservation, thawed quickly at 37° C., diluted in thaw medium (OptiMEM—Gibco medium, 10% heat inactivated fetal bovine serum (HIFBS)), and then centrifuged at 200×g for 10 minutes. […] After ˜60 minutes in an incubator at 37° C. in a humidified environment in 5% carbon dioxide the cells are stimulated by the addition of 5 μL of LPS (10 ng/mL; Sigma) and the assay plate is returned to an incubator at 37° C. in a humidified environment in 5% carbon dioxide for 4 hours. […] The final concentration of DMSO in the assay is approximately 0.1%. After 4 hours, the assay plate is removed from the incubator and centrifuged at 1500 rpm for 10 minutes. A portion of the resulting cell supernatant is then used to determine the amount of IL-10 and TNFα in each well. Cytokine measurements are made using human IL-10 and TNFα HTRF assay kits (Perkin Elmer) following the manufacturer's assay protocol.

For a further assay, the target named is SIK2 (Homo sapiens (Human), UniProt Q9H0K1). Description: Pan SIK MS IC50 enzyme assay (SIK2). The class given is biochemical. The following applies: 1 mM ATP, substrate peptide AQT0252, LCMS/MS detection. As to the method: as §1, §2
Assay [2] has as its system IL10 release from human monocyte derived macrophages stimulated with LPS. The assay is described as follows: SIK macrophage cytokine assay, increase of IL10 release. The class given is cell-based. The following applies: 1 ng/mL LPS, 4 hours, HTRF. The method, then: as §3
(TR-FRET usually uses a lanthanide donor and a delayed reading to cut background.)

A further assay addresses SIK1 (Homo sapiens (Human), UniProt P57059). Description: Pan SIK MS IC50 enzyme assay (SIK1). Type of assay: biochemical. Conditions: 1 mM ATP, substrate peptide AQT0868, LCMS/MS detection. The method, then: as §1, §2

Chain of SIK3 (Q9Y2K2 whole entry, species assumed): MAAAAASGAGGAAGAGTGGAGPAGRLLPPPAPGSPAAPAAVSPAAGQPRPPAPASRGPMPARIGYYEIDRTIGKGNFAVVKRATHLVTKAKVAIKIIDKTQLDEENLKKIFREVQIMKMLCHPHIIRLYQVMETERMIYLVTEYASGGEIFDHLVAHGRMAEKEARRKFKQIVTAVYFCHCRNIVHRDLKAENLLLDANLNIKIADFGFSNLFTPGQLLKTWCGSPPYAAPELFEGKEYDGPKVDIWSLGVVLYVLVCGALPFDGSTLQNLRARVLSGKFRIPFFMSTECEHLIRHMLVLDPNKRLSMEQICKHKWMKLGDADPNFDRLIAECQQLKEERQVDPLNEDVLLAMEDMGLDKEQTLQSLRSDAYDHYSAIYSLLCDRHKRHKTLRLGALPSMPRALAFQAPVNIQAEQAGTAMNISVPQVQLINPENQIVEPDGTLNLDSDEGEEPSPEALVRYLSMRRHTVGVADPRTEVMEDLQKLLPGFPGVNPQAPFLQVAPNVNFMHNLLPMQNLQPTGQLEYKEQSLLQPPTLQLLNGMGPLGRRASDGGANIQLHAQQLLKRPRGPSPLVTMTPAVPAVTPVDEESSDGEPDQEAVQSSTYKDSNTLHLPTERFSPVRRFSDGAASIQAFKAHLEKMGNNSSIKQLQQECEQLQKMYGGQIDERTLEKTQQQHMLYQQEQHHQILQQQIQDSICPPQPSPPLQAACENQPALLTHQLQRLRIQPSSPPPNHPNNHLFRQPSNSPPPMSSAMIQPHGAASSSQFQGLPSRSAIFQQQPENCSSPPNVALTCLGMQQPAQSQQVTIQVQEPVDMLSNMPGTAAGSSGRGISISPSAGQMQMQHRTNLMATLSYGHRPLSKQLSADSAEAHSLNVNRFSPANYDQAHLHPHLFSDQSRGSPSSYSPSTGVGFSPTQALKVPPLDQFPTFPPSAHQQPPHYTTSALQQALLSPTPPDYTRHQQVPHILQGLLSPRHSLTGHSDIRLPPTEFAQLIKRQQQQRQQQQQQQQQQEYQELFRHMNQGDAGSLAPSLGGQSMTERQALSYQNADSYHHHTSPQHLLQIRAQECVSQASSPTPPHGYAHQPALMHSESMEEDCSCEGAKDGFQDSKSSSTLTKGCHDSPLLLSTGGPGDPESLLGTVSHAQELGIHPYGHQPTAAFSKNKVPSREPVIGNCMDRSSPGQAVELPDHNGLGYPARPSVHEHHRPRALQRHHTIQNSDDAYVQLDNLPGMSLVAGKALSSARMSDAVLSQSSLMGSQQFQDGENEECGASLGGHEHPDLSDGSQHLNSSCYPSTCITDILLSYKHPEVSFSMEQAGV
Chain of SIK1 (P57059 whole entry, species assumed): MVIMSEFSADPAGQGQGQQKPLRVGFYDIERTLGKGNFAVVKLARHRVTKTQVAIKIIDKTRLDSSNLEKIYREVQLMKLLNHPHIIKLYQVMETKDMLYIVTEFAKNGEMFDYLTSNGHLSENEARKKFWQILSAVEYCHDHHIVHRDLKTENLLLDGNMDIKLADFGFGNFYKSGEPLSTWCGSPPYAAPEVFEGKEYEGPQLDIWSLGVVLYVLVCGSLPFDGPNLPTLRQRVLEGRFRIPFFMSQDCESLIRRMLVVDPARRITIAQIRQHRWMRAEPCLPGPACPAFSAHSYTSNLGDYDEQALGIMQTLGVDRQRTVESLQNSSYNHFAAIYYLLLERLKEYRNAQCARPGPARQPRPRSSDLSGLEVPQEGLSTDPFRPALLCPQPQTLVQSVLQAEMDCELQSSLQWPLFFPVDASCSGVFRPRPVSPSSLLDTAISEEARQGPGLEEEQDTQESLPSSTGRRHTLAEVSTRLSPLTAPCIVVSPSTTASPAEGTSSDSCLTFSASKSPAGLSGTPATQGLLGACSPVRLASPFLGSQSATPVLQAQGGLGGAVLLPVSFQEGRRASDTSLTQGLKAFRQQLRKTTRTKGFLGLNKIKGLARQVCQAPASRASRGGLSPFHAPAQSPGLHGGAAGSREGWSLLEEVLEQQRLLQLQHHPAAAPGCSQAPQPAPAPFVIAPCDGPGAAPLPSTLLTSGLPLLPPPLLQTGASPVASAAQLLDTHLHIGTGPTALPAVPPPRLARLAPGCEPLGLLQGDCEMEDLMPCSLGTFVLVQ
Chain of SIK2 (Q9H0K1 whole entry, species assumed): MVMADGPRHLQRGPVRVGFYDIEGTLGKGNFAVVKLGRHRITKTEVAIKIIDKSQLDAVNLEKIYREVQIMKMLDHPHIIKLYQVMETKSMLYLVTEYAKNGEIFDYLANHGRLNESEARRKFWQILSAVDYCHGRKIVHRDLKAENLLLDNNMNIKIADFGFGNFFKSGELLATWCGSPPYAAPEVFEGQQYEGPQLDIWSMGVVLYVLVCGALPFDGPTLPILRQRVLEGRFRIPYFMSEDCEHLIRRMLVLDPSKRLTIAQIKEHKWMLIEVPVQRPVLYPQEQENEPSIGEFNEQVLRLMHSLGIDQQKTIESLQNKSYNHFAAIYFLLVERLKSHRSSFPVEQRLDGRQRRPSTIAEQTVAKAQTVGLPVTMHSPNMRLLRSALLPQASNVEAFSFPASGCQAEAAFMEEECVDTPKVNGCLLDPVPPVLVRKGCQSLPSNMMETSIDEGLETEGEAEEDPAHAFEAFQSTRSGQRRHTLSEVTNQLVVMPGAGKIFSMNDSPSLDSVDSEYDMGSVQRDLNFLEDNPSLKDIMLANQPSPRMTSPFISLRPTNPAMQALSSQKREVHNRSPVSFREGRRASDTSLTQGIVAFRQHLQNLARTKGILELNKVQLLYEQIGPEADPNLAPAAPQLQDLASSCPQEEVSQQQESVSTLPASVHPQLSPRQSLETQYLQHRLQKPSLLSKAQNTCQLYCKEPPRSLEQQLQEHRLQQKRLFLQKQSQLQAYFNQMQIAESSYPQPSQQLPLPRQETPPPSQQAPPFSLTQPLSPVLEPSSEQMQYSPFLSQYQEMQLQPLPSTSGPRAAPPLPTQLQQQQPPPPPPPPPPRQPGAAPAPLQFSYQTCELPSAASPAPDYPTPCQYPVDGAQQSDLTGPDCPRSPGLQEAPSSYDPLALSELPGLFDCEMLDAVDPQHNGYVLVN

Turning to “3-(3-((1-Aminocyclopentyl)methoxy)-4-cyano-5-(methylthio)phenyl)pyrazolo[1,5-a]pyridine-4-carbonitrile [Example 37]”, the pIC50 at SIK3 is 9.05; in assay [1], 8.41; against SIK2 it was 9.40; on SIK1, 9.52. The compound also showed a negative logarithm of the EC50 (pEC50) in assay [2] of 7.57.
With `CC[C@@H]1CCC[C@@]1(N)COc1cc(-c2cnc3cccc(OC)n23)cc(SC)c1C#N` (mixture of isomers) [Example 9, 2-(((1S,2R)-1-Amino-2-ethylcyclopentyl)methoxy)-4-(5-methoxyimidazo[1,2-a]pyridin-3-yl)-6-(methylthio)benzonitrile and 2-(((1R,2S)-1-amino-2-ethylcyclopentyl)methoxy)-4-(5-methoxyimidazo[1,2-a]pyridin-3-yl)-6-(methylthio)benzonitrile], the pIC50 in assay [1] (Macrophage) is 8.28. This compound had a pEC50 in assay [2] (Macrophage) of 7.92.
Taken in the same sequence, the figures for `CSc1cc(-c2cnc3cccc(C#N)n23)cc(OC[C@@]2(N)CCC(F)(F)C2)c1C#N` (mixture of isomers) [Example 12, (R)-3-(3-((1-Amino-3,3-difluorocyclopentyl)methoxy)-4-cyano-5-(methylthio)phenyl)imidazo[1,2-a]pyridine-5-carbonitrile and (S)-3-(3-((1-amino-3,3-difluorocyclopentyl)methoxy)-4-cyano-5-(methylthio)phenyl)imidazo[1,2-a]pyridine-5-carbonitrile] were 7.70 and 7.17.
As to `CSc1cc(-c2cnc3cccc(C#N)n23)cc(OC[C@@]2(N)CCCC(C)(C)C2)c1C#N` (mixture of isomers) [Example 14, (R)-3-(3-((1-Amino-3,3-dimethylcyclohexyl)methoxy)-4-cyano-5-(methylthio)phenyl)imidazo[1,2-a]pyridine-5-carbonitrile and (S)-3-(3-((1-amino-3,3-dimethylcyclohexyl)methoxy)-4-cyano-5-(methylthio)phenyl)imidazo[1,2-a]pyridine-5-carbonitrile], the pIC50 at SIK3 is 8.92; in assay [1] (Macrophage) it was 7.86; against SIK2, 8.82; against SIK1, 9.22. The pEC50 in assay [2] (Macrophage) was 7.35.
Taken in the same sequence, the figures for `CSc1cc(-c2cnc3ccccn23)cc(OC[C@]2(N)CCSC2)c1C#N` (mixture of isomers) [Example 22, (R)-2-((3-Aminotetrahydrothiophen-3-yl)methoxy)-4-(imidazo[1,2-a]pyridin-3-yl)-6-(methylthio)benzonitrile and (S)-2-((3-Aminotetrahydrothiophen-3-yl)methoxy)-4-(imidazo[1,2-a]pyridin-3-yl)-6-(methylthio)benzonitrile] were 8.23, 7.49, 8.89, 8.80 and 6.45.
Taken in the same sequence, the figures for `CSc1cc(-c2cnc3ccccn23)cc(OC[C@@]2(N)CCC(F)(F)C2)c1C#N` (mixture of isomers) [Example 25, (R)-2-((1-Amino-3,3-difluorocyclopentyl)methoxy)-4-(imidazo[1,2-a]pyridin-3-yl)-6-(methylthio)benzonitrile and (S)-2-((1-amino-3,3-difluorocyclopentyl)methoxy)-4-(imidazo[1,2-a]pyridin-3-yl)-6-(methylthio)benzonitrile] were 8.28, 7.81, 9.05, 8.64 and 6.75.
Consider `COCC1CCC[C@@](N)(COc2cc(-c3cnc4ccccn34)cc(SC)c2C#N)C1` (mixture of isomers) [Example 31, 2-(((1S)-1-Amino-3-(methoxymethyl)cyclohexyl)methoxy)-4-(imidazo[1,2-a]pyridin-3-yl)-6-(methylthio)benzonitrile and 2-(((1R)-1-amino-3-(methoxymethyl)-cyclohexyl)methoxy)-4-(imidazo[1,2-a]pyridin-3-yl)-6-(methylthio)benzonitrile], for which the pIC50 at SIK3 was 8.32; in assay [1], 7.86; at SIK2, 8.80; against SIK1, 9.15. In assay [2], this compound gave a pEC50 of 7.44.
For `CSc1cc(-c2cnc3ccccn23)cc(OC[C@@]2(N)CCC[C@H](C(F)(F)F)C2)c1C#N.CSc1cc(-c2cnc3ccccn23)cc(OC[C@]2(N)CCC[C@@H](C(F)(F)F)C2)c1C#N` (mixture of isomers) [Example 33B, 2-(((1R,3S)-1-Amino-3-(trifluoromethyl)cyclohexyl)methoxy)-4-(imidazo[1,2-a]pyridin-3-yl)-6-(methylthio)benzonitrile and 2-(((1S,3R)-1-amino-3-(trifluoromethyl)cyclohexyl)methoxy)-4-(imidazo[1,2-a]pyridin-3-yl)-6-(methylthio)benzonitrile], in that order: 7.63, 6.59, 8.00, 7.96 and 6.47.
As to `CC[C@@H]1CCC[C@@]1(N)COc1cc(-c2cnc3cccc(C#N)n23)cc(SC)c1C#N` (racemic) [Example 7, 3-(3-(((1S,2R)-1-Amino-2-ethylcyclopentyl)methoxy)-4-cyano-5-(methylthio)phenyl)imidazo[1,2-a]pyridine-5-carbonitrile and 3-(3-(((1R,2S)-1-amino-2-ethylcyclopentyl)methoxy)-4-cyano-5-(methylthio)phenyl)imidazo[1,2-a]pyridine-5-carbonitrile], the pIC50 against SIK3 was 8.74; in assay [1] (Macrophage), 8.82; against SIK2, 9.10; against SIK1, 9.30. In assay [2] (Macrophage), this compound had a negative logarithm of the EC50 (pEC50) of 8.30.
Taken in the same sequence, the figures for `CC[C@H]1CCC[C@@](N)(COc2cc(-c3cnc4cccc(C#N)n34)cc(SC)c2C#N)C1` (racemic) [Example 18, 3-(3-(((1S,3S)-1-Amino-3-ethylcyclohexyl)methoxy)-4-cyano-5-(methylthio)phenyl)imidazo[1,2-a]pyridine-5-carbonitrile and 3-(3-(((1R,3R)-1-amino-3-ethylcyclohexyl)methoxy)-4-cyano-5-(methylthio)phenyl)imidazo[1,2-a]pyridine-5-carbonitrile] were 9.00, 8.96, 9.22, 10.00 and 8.30.
On to `CC[C@@H]1CCC[C@](N)(COc2cc(-c3cnc4cccc(OC)n34)cc(OC)c2C#N)C1` [Example 16, 2-(((1R,3R)-1-Amino-3-ethylcyclohexyl)methoxy)-6-methoxy-4-(5-methoxyimidazo[1,2-a]pyridin-3-yl)benzonitrile and 2-(((16,36)-1-Amino-3-ethylcyclohexyl)methoxy)-6-methoxy-4-(5-methoxyimidazo[1,2-a]pyridin-3-yl)benzonitrile], for which the pIC50 in assay [1] (Macrophage) was 8.32. For the same compound, the negative-log EC50 (pEC50) in assay [2] (Macrophage) is 7.85.

As usually defined, the pIC50 is the IC50 on a negative log10 scale, so that one unit is a factor of ten. The pEC50 is −log10 of the EC50, conventionally taken in molar units.
